Assay results reported in US20220168392A1 (priority 2019, published 2022).
Square brackets hold non-standard residues; d marks the D form. * marks the point of attachment. 2Nal = N[C@@H](Cc1ccc2ccccc2c1)C(=O)O; Propionyl = CCC(=O)*; Sar = CNCC(=O)O

Experiments:
[1] = test system: CD2F1 mice exposed to TBI (7 Gy); assay: Circulating biomarkers (EPO, FLT3 ligand, MMP9, VCAM1, E-Selectin, sP-Selectin) after 7 Gy TBI; assay type: in vivo, mouse
Description: Harvesting blood and tissues for various molecular assays: RWJ-800088 (0.3 mg/kg) or saline (n=6 per group) was administered SC 24 hour prior to irradiation. The experimental animals received either 0 or 7 Gy radiation (non-lethal dose) in the AFRRI Co-60 gamma radiation facility. […] The femurs and sterna were then collected and processed as described below.

Mouse = assay: Maximum platelet elevation relative to baseline in normal healthy mice, single escalating doses; assay type: in vivo; parameters: key to pharmacodynamics (PD) effect class of the dose (beneficial effects on survival): **: large pharmacodynamics (PD) effect; *: modest effect; settings: for Mouse Max Platelet Ratio: 3DP03-Piedmont-01
Source text: (§1) The ratio of the maximum platelet counts to the baseline platelet counts following single escalating doses of RWJ-800088 to mice, rats, dogs, rhesus monkeys and human healthy volunteers is shown in Table 5. The dose required to achieve a 2-3.5-fold elevation in humans is ˜100-fold lower compared to mice, ˜1,000-fold lower compared to rats and >10,000-fold lower compared to canines and NHPs. […] The species differences in potency has been described for other TPO mimetics in the literature and is attributed to differences in receptor affinity (Erickson-Miller C L, et al. Discovery and characterization of a selective, nonpeptidyl thrombopoietin receptor agonist. Exp. Hematol. 2005; 33:85-93). […] It is discovered that the dose of RWJ-800088 that produces a survival benefit and protects against vascular and organ injury is the dose that produces a 2-4 fold elevation of platelets (Table 6).

healthy men = assay: Study NAP1001: single IV dose in healthy men (platelet counts, safety); assay type: in vivo, human; parameters: key to pharmacodynamics (PD) effect class of the dose (beneficial effects on survival): **: large pharmacodynamics (PD) effect; *: modest effect; settings: for Humans Max Platelet Ratio: NAP 1001
Description: In the FIH, single dose, Phase 1 clinical study NAP1001, 40 healthy men were enrolled, and 30 subjects received a single IV dose of RWJ-800088 as a 5-mg/mL solution in saline (dose range 0.375 to 3 μg/kg); 10 subjects received placebo. […] Thirty-three (83%) of 40 subjects reported at least 1 treatment-emergent adverse event throughout the study. Similar proportions of subjects reported treatment-emergent adverse events following administration of placebo (9 [90%] of 10 subjects) and RWJ-800088 (24 [80%] of 30 subjects). […] Mean platelet counts increased with increasing RWJ-800088 dose compared with placebo from Day 6 onwards, peaking at Days 10 to 12 before gradually returning to baseline by Day 21 (FIG. 19).
as §1

[2] = test system: Rats, prostate irradiation; assay: Prostate irradiation in rats (Table 6); assay type: in vivo, rat; settings: 3 mg/kg, whole wrapped cell: Protection of vascular size and function
Rat = assay: Maximum platelet elevation relative to baseline in normal healthy rats, single escalating doses; assay type: in vivo; parameters: key to pharmacodynamics (PD) effect class of the dose (beneficial effects on survival): **: large pharmacodynamics (PD) effect; *: modest effect; settings: for Rat Max Platelet Ratio: TOX6984
Source text: as §1

methoxypolyethyleneglycol20000-propionyl-L-Isoleucyl-L-Glutamyl-Glycyl-L-Prolyl-L-Threonyl-L-Leucyl-L-Arginyl-L-Glutaminyl-L-2-Naphthylalanyl-L-Leucyl-L-Alanyl-L-Alanyl-L-Arginyl-Sarcosyl-Ne-(methoxypolyethyleneglycol20000-propionyl-L-Isoleucyl-L-Glutamyl-Glycyl-L-Prolyl-L-Threonyl-L-Leucyl-L-Arginyl-L-Glutaminyl-L-2-Naphthylalanyl-L-Leucyl-L-Alanyl-L-Alanyl-L-Arginyl-Sarcosyl-)-Lysinamide ({mPEG 20 kDa-Propionyl}-IEGPTLRQ[2Nal]LAAR[Sar]K-NH2; also: dimer: second identical mPEG-propionyl chain on Lys Nε of C-terminal lysinamide) [RWJ-800088]
circulating levels of erythropoietin (EPO) vs vehicle treated irradiated mice ([1]; 7 Gy, 0.3 mg/kg 24 h pre-TBI (FIG. 5A)): significantly (p<0.0001) lower | circulating levels of FLT3 ligand vs vehicle treated irradiated mice ([1]; 7 Gy, 0.3 mg/kg 24 h pre-TBI (FIG. 5B)): significantly (p<0.0001) lower | circulating levels of sP-Selectin vs vehicle ([1]; days 2, 3, 7, and 15 post-irradiation): statistically significant increases (p<0.0001) | circulating levels of E-Selectin vs vehicle ([1]; days 3, 7 15 and 30 post-irradiation): statistically significant increases (p<0.0001) | circulating levels of MMP-9 vs vehicle ([1]; days 7 and 15 post-irradiation): statistically significant increases (p<0.0001) | circulating levels of VCAM-1 vs vehicle ([1]; days 15 and 30 post-irradiation): statistically significant increases (p<0.0001) | Mouse Max Platelet Ratio (Mouse; dose 10 μg/kg): 0.9 ± 0.6 | Mouse Max Platelet Ratio (Mouse; dose 30 μg/kg): 1.8 ± 0.4 | Mouse Max Platelet Ratio (Mouse; dose 100 μg/kg): 2.5 ± 1.1 | Mouse Max Platelet Ratio (Mouse; dose 300 μg/kg): 3.9 ± 0.9 | Mouse Max Platelet Ratio (Mouse; dose 1000 μg/kg): 4.3 ± 0.5 | Mouse Max Platelet Ratio (Mouse; dose 3000 μg/kg): 3.4 ± 1 | Dose for 2.0-4x Platelet Elevation in Healthy Subjects (Mouse; Mice): ≥0.1 mg/kg | pharmacodynamics (PD) effect class of the dose (beneficial effects on survival) (Mouse; Mouse, dose 100 μg/kg): ** | Average of the Maximum Platelet Elevation/Baseline Platelet Counts (Mouse; Mouse, dose 300 μg/kg): 3.9 | pharmacodynamics (PD) effect class of the dose (beneficial effects on survival) (Mouse; Mouse, dose 300 μg/kg): ** | pharmacodynamics (PD) effect class of the dose (beneficial effects on survival) (Mouse; Mouse, dose 1000 μg/kg): ** | pharmacodynamics (PD) effect class of the dose (beneficial effects on survival) (Mouse; Mouse, dose 3000 μg/kg): ** | Platelet Elevation in Non-Irradiated Animals (fold increase over baseline) (Mouse; TPOm dose 0.1 mg/kg): 2.50 fold increase over baseline | Platelet Elevation in Non-Irradiated Animals (fold increase over baseline) (Mouse; TPOm dose 0.3 mg/kg): 3.90 fold increase over baseline | Platelet Elevation in Non-Irradiated Animals (fold increase over baseline) (Mouse; TPOm dose 1 mg/kg): 4.30 fold increase over baseline | Platelet Elevation in Non-Irradiated Animals (fold increase over baseline) (Mouse; TPOm dose 2 mg/kg, imputed as mean of the 1 mg/kg and 3 mg/kg cohorts): 3.85 fold increase over baseline | Platelet Elevation in Non-Irradiated Animals (fold increase over baseline) (Mouse; TPOm dose 3 mg/kg): 3.40 fold increase over baseline | subjects reporting treatment-emergent adverse events (healthy men; 24 of 30 subjects, single IV dose 0.375 to 3 μg/kg): 80% | Average of the Maximum Platelet Elevation/Baseline Platelet Counts (healthy men; Human, dose 3 μg/kg): 3.3 | Dose for 2.0-4x Platelet Elevation in Healthy Subjects (healthy men; Humans): ≥0.00225 mg/kg | pharmacodynamics (PD) effect class of the dose (beneficial effects on survival) (healthy men; Humans, dose 2.25 μg/kg): ** | pharmacodynamics (PD) effect class of the dose (beneficial effects on survival) (healthy men; Humans, dose 3 μg/kg): ** | Humans Max Platelet Ratio (healthy men; dose 0.375 μg/kg): 1.4 ± 0.3 | Humans Max Platelet Ratio (healthy men; dose 0.75 μg/kg): 1.8 ± 0.4 | Humans Max Platelet Ratio (healthy men; dose 1.5 μg/kg): 1.9 ± 0.7 | Humans Max Platelet Ratio (healthy men; dose 2.25 μg/kg): 2.1 ± 0.8 | Humans Max Platelet Ratio (healthy men; dose 3 μg/kg): 3.1 ± 1.1 | enhancement of platelets over background (healthy men; humans, 3 μg/kg (FIG. 19)): 3.5 fold | incidence of adverse events, dose relation (healthy men; single IV dose 0.375 to 3 μg/kg): not dose related | tolerability (healthy men; single IV doses up to and including 3 μg/kg, healthy men): well tolerated | Effects [2]: Protection of vascular size | Average of the Maximum Platelet Elevation/Baseline Platelet Counts (Rat; Rat, dose 3000 μg/kg): 3.1 | pharmacodynamics (PD) effect class of the dose (beneficial effects on survival) (Rat; Rat, dose 3000 μg/kg): ** | Dose for 2.0-4x Platelet Elevation in Healthy Subjects (Rat; Rats): ≥3 mg/kg | Rat Max Platelet Ratio (Rat; dose 100 μg/kg): 1.0 ± 0.2 | Rat Max Platelet Ratio (Rat; dose 300 μg/kg): 1.7 ± 0.3 | Rat Max Platelet Ratio (Rat; dose 3000 μg/kg): 3.2 ± 0.6
